Experimental data from patent publication US12202790B2, “Sulfonamide derivatives having selective Nox inhibiting activity” (GLUCOX BIOTECH AB, priority 2018, dated 2025).

Assays:
hNox4 = hNox4 (Homo sapiens (Human), UniProt Q9NPH5); experiment: hNox4 membrane assay (Amplex Red, cell-free); format: biochemical
Procedure: (§1) Reactive oxygen produced in whole cells or in membrane preparation of Nox1, Nox3, Nox4, Nox5 and xanthine oxidase and glucose oxidase were determined using Amplex Red as detection probe of formed H2O2. Amplex Red (10-acetyl-3,7-dihydroxyphenoxazine) in combination with HRP and co-factors reacts with H2O2 in a 1:1 stoichiometry to form a highly fluorescent resorufin excitated at 544 nm producing emission at 590 nm.
Membranes from transfected cells overexpressing Nox1 (CHO), Nox2 (PLB), Nox3 (HEK), Nox4 (HEK) or Nox5 (HEK) were prepared as described in Pailcz et al., 2001, J. Biol. Chem, 76, 3090-3097. Cells were suspended and homogenized in sonication buffer containing PBS, sucrose (11%), NaCl (120 mM) and EGTA (1 mM) supplemented with protease inhibitors and further processed and then broken by sonication cooled with an ice bath. Then the sample was centrifuged at 200×g for 10 min. Supernatant was carefully added on top of a 17/40% discontinuous sucrose gradient and centrifuged at 150 000×g for 60 min. Membranes containing Nox isoforms were collected at the 17/40% sucrose interface as described by Jaquet V, et al., Br J Pharmacol 2011; 164:507-520. For the Nox isoforms Nox1, Nox2, Nox3 a subunit-specific cell-free, membrane-based system has been developed and recombinant proteins of the subunits were added to receive activation of the Nox-iso forms in the cell-free assay. The Amplex Red assay was performed in black 96-well flat bottom plates. Assay reagents including HRP ([…]), FAD (6 μM), phosphatidic acid (15 μM) and Amplex Red (50 μM) were added followed by NADPH (30 μM) to initiate production of hydrogen peroxide. The production of hydrogen peroxide was followed by use of a fluorescence plate reader, read at 37° C. every minute between 30-60 minutes.

Nox3 = Nox3 (Homo sapiens (Human), UniProt Q9HBY0); experiment: Amplex Red assay of Nox3 expressing HEK cells; format: cell-based; parameters: key: The sign “—” stands for “inactive”
From the text: HEK293 overexpressing Nox4 (CJ Nox4) cells were purchased from Redoxis, Lund, Sweden. HEK 293 cells expressing Nox5, Nox3 (HEK TRex) and CHO cells expressing Nox1, were a kind gift from Vincent Jaque Center Medical Universitaire, Geneva, Switzerland. Nox2 expressed in isolated neutrophils were isolated from whole blood (human), as previously described (Anvari E, et al., Free Radic Res 2015; 49:1308-1318).
HEK293T cells expressing tetracycline-inducible human (Nox3 or Nox4) and HEK293 cells stably expressing human Nox5 were generated as described previously (Serrander et al., 2007a,b). HEK cells were cultured in Dulbecco's modified Eagle medium (DMEM) with 4.5 g/l glucose, supplemented with FBS (10%), penicillin (100 U/ml) and streptomycin […] at 37° C. in air with 5% CO2.
as §1
Adherent cells (CHO, HEK) were collected by trypsinization, centrifuged, washed with HBSS, counted, and resuspended in HBSS. Cells were seeded in 96-well black flat bottom plates at a density of 50,000-100,000 cells/well. All compounds were dissolved in DMSO and concentrations ranging from 0.003 to 200 μM were tested in Nox cellular assays with a final concentration of DMSO of 1%. Cells were incubated at 37° C. with the compounds for 30 minutes before measurement. Cells expressing Nox1 and Nox2 were activated with the PKC activator PMA (0.1 μM). […] Production of hydrogen peroxide by Nox in intact cells was measured using Amplex Red fluorescence as described by Jaquet V, et al., Br J Pharmacol 2011; 164:507-520. […] Fluorescence was read in a fluorescence plate reader at 37° C. every minute between 30-60 minutes.

[1] = test system: human brain micro-vascular endothelial cells; experiment: In vitro stroke model: endothelial cells subjected to hypoxia and glucose deprivation; format: cell-based; details: hypoxia and glucose deprivation 5 h (Example 44: 6 h), viability after 24 hours of culture
Procedure: (§2) FIG. 1 is a bar chart showing cell viability as a ratio of basal cell viability of human brain microvascular endothelial cells subjected to hypoxia and starvation (OGD: oxygen and glucose deprivation) for 5 h and then cultured for 24 h in the absence or presence of Example 11 at a concentration of 2, 10 or 20 μM. Basal=no hypoxia or starvation, cells cultured in the presence of culture medium only. OGD=5 h of hypoxia or starvation, cells cultured in the presence of culture medium only.
as §2, with “2” for “1”, “(OGD)” for “(OGD: oxygen and glucose deprivation)”, “17” for “11”, “0.3, 3 or” for “2,”, “10” for “10 or 20”
FIG. 3 is a bar chart showing cell viability as a ratio of basal cell viability of human brain microvascular endothelial cells subjected to hypoxia and starvation (OGD: oxygen and glucose deprivation) for 6 h and then cultured for 24 h in the absence or presence of Example 44 at a concentration of from 0.6 to 9.6 μM. Basal=no hypoxia or starvation, cells cultured in the presence of culture medium only. OGD=6 h of hypoxia or starvation, cells cultured in the presence of culture medium only (*p<0.05, ***p<0.001).
Hippocampal brain slices and human brain micro-vascular endothelial cells were subjected to hypoxia and glucose deprivation (starvation) for 5 hours and were tested for viability after 24 hours of culture in the presence of Example 11 or Example 17 at different concentrations. Additionally, human brain micro-vascular endothelial cells were subjected to hypoxia and glucose deprivation (starvation) for 6 hours and were tested for viability after 24 hours of culture in the presence of Example 44 at various concentrations.

glucose oxidase = glucose oxidase (Aspergillus niger, UniProt P13006); experiment: Amplex Red and glucose oxidase (GO) assay; format: biochemical; parameters: key: The sign “—” stands for “inactive”
Procedure: as §1
The assay was performed using a modified form of Invitrogen Amplex™ Red Glucose/Glucose Oxidase Assay Kit Cat no: A22189. Test compounds were incubated with 5 mU/ml glucose oxidase for 30 min at room temperature, followed by the addition of substrate and detection mix (final concentrations of 0.1 U/ml HRP, 10 mM glucose, 50 μM Amplex Red in phosphate buffer pH 7.4) and then fluorescence detection of hydrogen peroxide production was performed during 30 min at 37° C. in a plate reader that use excitation at 544 nm producing emission at 590 nm.

[2] = molecular target: Nox1 expressing CHO cells (Homo sapiens (Human), UniProt Q9Y5S8); experiment: Oxygen consumption in Nox1 expressing CHO cells; format: cell-based
Nox1 expressing CHO cells, sequence (Q9Y5S8 whole entry): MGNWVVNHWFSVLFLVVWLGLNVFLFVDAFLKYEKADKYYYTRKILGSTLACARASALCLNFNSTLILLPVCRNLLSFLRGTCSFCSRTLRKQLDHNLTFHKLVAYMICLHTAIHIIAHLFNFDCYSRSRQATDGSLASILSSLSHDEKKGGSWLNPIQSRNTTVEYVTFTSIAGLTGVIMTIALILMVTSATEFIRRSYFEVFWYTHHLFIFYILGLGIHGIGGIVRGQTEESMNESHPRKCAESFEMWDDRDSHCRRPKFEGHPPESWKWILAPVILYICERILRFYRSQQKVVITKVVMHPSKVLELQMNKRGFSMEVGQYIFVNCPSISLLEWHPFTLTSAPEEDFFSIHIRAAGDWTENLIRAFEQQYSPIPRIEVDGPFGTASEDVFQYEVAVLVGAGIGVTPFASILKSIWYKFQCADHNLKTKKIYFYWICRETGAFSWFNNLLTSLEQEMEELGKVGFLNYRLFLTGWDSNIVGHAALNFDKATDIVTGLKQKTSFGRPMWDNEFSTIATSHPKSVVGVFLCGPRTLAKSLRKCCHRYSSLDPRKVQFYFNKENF
Nox1 expressing CHO cells, sequence (P13498 2-195 partner): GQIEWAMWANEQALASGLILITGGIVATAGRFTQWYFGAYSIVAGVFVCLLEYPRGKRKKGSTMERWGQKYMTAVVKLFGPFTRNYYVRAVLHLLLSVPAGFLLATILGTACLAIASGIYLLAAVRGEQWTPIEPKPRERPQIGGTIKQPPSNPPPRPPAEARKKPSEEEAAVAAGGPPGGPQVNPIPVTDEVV

Nox3, sequence (Q9HBY0 whole entry): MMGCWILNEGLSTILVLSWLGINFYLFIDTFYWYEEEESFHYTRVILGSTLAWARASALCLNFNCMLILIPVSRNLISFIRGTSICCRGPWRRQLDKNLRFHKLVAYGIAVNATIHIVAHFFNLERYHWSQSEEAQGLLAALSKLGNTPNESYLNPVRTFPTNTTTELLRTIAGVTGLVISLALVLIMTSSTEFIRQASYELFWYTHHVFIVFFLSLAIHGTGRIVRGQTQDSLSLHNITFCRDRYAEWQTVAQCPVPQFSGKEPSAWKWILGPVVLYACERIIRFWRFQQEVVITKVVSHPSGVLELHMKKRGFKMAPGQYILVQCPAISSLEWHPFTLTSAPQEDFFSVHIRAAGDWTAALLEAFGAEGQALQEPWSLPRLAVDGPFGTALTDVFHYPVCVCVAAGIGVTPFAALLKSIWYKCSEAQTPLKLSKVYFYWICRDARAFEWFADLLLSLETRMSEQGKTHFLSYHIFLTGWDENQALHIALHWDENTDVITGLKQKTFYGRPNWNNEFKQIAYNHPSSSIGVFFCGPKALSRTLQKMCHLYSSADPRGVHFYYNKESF
Nox3, sequence (P13498 2-195 partner): as the sequence (P13498 2-195 partner) above
hNox4, sequence (Q9NPH5 whole entry): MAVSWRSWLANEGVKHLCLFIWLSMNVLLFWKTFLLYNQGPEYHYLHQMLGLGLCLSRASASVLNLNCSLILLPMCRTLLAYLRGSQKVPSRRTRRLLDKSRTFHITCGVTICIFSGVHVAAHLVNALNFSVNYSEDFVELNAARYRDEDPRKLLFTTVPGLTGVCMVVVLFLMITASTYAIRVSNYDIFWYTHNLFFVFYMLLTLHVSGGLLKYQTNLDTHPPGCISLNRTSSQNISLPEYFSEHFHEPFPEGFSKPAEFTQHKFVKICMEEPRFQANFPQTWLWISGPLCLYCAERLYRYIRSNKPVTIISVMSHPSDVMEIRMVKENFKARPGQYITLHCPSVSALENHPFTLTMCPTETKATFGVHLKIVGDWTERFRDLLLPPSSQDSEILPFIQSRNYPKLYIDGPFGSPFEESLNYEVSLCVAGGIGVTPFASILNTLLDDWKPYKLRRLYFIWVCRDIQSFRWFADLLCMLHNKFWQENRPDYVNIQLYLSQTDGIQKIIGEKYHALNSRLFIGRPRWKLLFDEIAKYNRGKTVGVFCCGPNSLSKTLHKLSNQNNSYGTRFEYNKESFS
hNox4, sequence (P13498 2-195 partner): as the sequence (P13498 2-195 partner) above
glucose oxidase, sequence (P13006 17-605): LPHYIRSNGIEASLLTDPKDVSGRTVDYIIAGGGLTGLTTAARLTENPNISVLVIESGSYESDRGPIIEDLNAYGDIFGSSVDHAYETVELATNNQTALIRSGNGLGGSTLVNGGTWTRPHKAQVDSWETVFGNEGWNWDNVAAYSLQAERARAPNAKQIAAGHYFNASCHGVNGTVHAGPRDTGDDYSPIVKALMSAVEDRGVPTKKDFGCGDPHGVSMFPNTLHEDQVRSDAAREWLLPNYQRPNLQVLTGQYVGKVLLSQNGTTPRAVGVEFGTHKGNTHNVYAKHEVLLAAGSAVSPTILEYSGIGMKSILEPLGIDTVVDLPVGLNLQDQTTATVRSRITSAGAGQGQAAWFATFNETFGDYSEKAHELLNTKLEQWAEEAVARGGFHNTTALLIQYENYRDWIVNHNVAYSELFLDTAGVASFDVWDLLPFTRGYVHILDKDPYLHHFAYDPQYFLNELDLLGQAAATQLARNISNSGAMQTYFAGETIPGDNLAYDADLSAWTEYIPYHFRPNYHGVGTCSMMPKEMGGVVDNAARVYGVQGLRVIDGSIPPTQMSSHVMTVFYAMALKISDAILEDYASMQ

| Structure (SMILES) | Ki (hNox4) [nM] | IC50 Nox3 (Nox3) | neuroprotective effect (cell viability) [1] | IC50 GO (glucose oxidase) | Inhibition of oxygen consumption in Nox1 expressing CHO cells [2] |
| --- | --- | --- | --- | --- | --- |
| Cc1ccccc1CCNS(=O)(=O)c1c(C)cccc1Cl [Example 11, 2-chloro-6-methyl-N-[2-(2-methylphenyl)ethyl]benzene-1-sulfonamide] | 4400 | — | neuroprotective effect | — | No |
| Cc1ccccc1CCNS(=O)(=O)c1c(Cl)cc(Br)cc1Cl [Example 17, 4-bromo-2,6-dichloro-N-[2-(2-methylphenyl)ethyl]benzene-1-sulfonamide] | 560 | — | neuroprotective effect | — | No |
| O=S(=O)(NCCc1ccccc1Cl)c1c(Cl)cc(C2CC2)cc1Cl [Example 26, 2,6-dichloro-N-[2-(2-chlorophenyl)ethyl]-4-cyclopropylbenzene-1-sulfonamide] | 2200 | — |  | — | No |
| Cc1cc(Cl)c(S(=O)(=O)NCCc2ccccc2O)c(C)c1O [Example 44, 6-chloro-3-hydroxy-N-[2-(2-hydroxyphenyl)ethyl]-2,4-dimethyl-benzenesulfonamide] |  |  | neuroprotective effect |  |  |
